Experimental data reported in patent publication US20120009590A1, “DEVICE AND NON-TOXIC COMPOSITIONS AND METHODS FOR PERMEABILIZATION OF DROSOPHILA EMBRYOS” (The University of Vermont and State Agriculture College, priority 2009, published 2012).

Columns and labels:
Canton S embryos = test: Scoring of cephalic furrow formation and germband elongation in embryos; format: in vivo, Drosophila melanogaster
Procedure: Effects of EPS and cycloheximide or other agents on embryo development were scored using contemporaneous DIC optics and fluorescent visualization. Canton S embryos were collected from a 3 hr laying and aged one additional hour at 25° C. Embryos were treated with 1:10 EPS in H2O for 30-60 seconds followed by washing and immersion in 1 mM rhodamine B dye in PBS for 5 minutes with rocking. Embryos were washed four times in PBS and immersed in PBS containing 10 μM cycloheximide on a Kiehart slide. Embryos were allowed to develop an additional 1.5 hours at ambient temperature (˜23° C.). […] Variable treatments included omission of EPS exposure or omission of cycloheximide or other toxic agent. Each condition was assayed in three independent preparations of embryos with >180 embryos scored for each treatment condition.
We next sought to determine the feasibility of using an early embryogenesis endpoint as an indicator of teratogenic effects. In separate experiments using flies carrying the GFP reporter for the Dorsal protein we determined that CHX had profound effects on the morphogenetic movements of the embryo in the first 3-5 hours of development (see FIG. 13 below). During these stages formation of the cephalic furrow and germband elongation serve as landmarks that are easily identifiable under differential interference contrast (DIC) microscopy (see FIG. 8). […]

Drosophila embryos = test: Midgut development by blue yolk auto-fluorescence at Stage 16; format: in vivo, Drosophila melanogaster; settings: EPS-treated 3 hr old embryos, 10 μM, 18° C., 20 hours
Procedure: The embryo develops into a larva in 22-24 hours at 25° C. (refer to FIG. 9A). […] We investigated a variety of morphological events leading up to stage 17 for potentially easily identifiable endpoints. Through monitoring development under fluorescence time-lapse imaging we observed the highly dynamic pattern of blue fluorescence emitted from the auto-fluorescence of yolk proteins in the embryo. At preblastodem stages a relatively uniformly dispersed blue fluorescence is seen across the embryo (FIG. 11A). Between 3-6 hours of development this pattern changes drastically as the yolk proteins are pushed aside during germband elongation (refer to FIG. 9A). […] Blue fluorescence is seen to consolidate in the lumen of the gut initially as one large mass in the newly fused midgut (FIG. 11A, 12 hrs). […] The compartmentalized strong blue fluorescence in the midgut makes normally developed Stage 16/17 embryos easily discernable under fluorescence (FIG. 11A, 14 hrs).
We next tested the utility of this endpoint to examine small molecule toxicity by exposing permeabilized embryos to cycloheximide (CHX), a potent protein synthesis inhibitor and teratogen. EPS-treated 3 hr old embryos were incubated in the presence (FIG. 11 D, E) or absence (FIG. 11A,B,C) of 10 μM CHX at 18° C. for 20 hours (equivalent to 10 hours at 25° C.) and examined under blue fluorescence. […]

Dorsal-GFP embryos = test: Dorsal-GFP reporter in preblastoderm embryos; format: in vivo, Drosophila melanogaster; settings: EPS treated preblastoderm embryos
Description: We turned to the Dorsal-GFP transgenic fusion construct reporter to further examine the effects of the teratogen CHX. The Dorsal protein is the Drosophila NF-κB homolog which is central to signaling that establishes the dorsal-ventral axis in the embryo. Dorsal protein localizes to ventral cell nuclei where it acts to define the D/V axis.
Using this same Dorsal-GFP construct we see dynamic distribution of Dorsal-GFP in and out of the ventral nuclei of an EPS treated pre-blastoderm embryos (FIG. 13A, B). […] In many cases these early embryos are seen to stall in development. […] Embryos affected at slightly later stages show irregular nuclear Dorsal accumulation (FIG. 13D) as well as varied sizes in the nuclei present (FIG. 13E). It is interesting to note that these deformities occur more frequently in the anterior portion of the embryo, consistent with the gradient of dye dispersal seen in EPS treated embryos.

engrailed-GFP embryos = settings: EPS-permeabilized embryos
Procedure: Incubations of permeabilized embryos were carried out in two types of chambers. Longer-term incubations (6-48 hours) were done in a modified nitex basket (see FIG. 1). The basket-reservoir apparatus was covered with a tight fitting cap to limit evaporation and was incubated at 18° C. for continued development of the embryo. Short term incubations <3 hours were done in a slide chamber (see FIG. 2A). […] Incubations for early embryonic endpoints were done at room temperature and for later developmental endpoint (e.g. gut development and engrailed patterning) at 18° C.
Drug treatments were done by additions to the PBS solution reservoir during incubation in either the slide or basket chambers. Drugs used were: cycloheximide (Fluka 01810, MW=281.35, 50 mM stock in H2O), colchicine (Biomol Labs T118, MW=[…] in H2O), methylmercury chloride (Aldrich 442534, MW=251, 50 mM stock in DMSO), cytochalasin D (Sigma C8273, MW=507.6, 5 mM stock in DMSO) and cyclophosphamide (LKT C9609, MW=279.1, 100 mM stock in H2O).
The engrailed gene encodes a homeodomain transcription factor that is highly conserved in all metazoans. Engrailed is a segment polarity gene whose expression marks the […] boundary of each segment in the embryo. Engrailed also function in neural development to define developing brain regions and regulate growth of axons.

Miscibility with water = format: physicochemical; settings: without surfactant
Procedure: The presence of at least one surfactant is required to allow for the formation of a stable emulsion for sufficient time to allow for permeabilization of the embryos (i.e., at least about 10 minutes).

Compound: C[C@@H]1C[C@@H]([C@H](O)CC2CC(=O)NC(=O)C2)C(=O)[C@@H](C)C1 [CHX, cycloheximide]
- cephalic furrow formation (Canton S embryos; 2.5 hr old permeabilized embryos, 10 μM, 1.5 hours): disruption of cephalic furrow formation
- EPS treated embryos with abnormal formation of the cephalic furrow (Canton S embryos; CHX 10 μM, EPS treated embryos): more than 80%
- gut development (blue fluorescence pattern) (Drosophila embryos): induced gut malformation
- pattern of nuclear divisions and Dorsal-GFP distribution (Dorsal-GFP embryos): gross deformities in the pattern of nuclear divisions and Dorsal distribution

Compound: C=C1[C@@H](C)[C@H]2[C@H](Cc3ccccc3)NC(=O)[C@]23[C@H](OC(C)=O)/C=C/[C@@](C)(O)C(=O)[C@@H](C)C/C=C/[C@H]3[C@@H]1O [Cytochalasin D, cytochalasin D]
- engrailed-GFP expression pattern and embryo development (engrailed-GFP embryos): stalling of embryo development at Stage 11 with gaps in the Engrailed band of cells in several segments

Compound: O=P1(N(CCCl)CCCl)NCCCO1 (centres unmarked) [cyclophosphamide]
- engrailed-GFP expression pattern and embryo development (engrailed-GFP embryos): overall shortening of the embryo and generates breaks in the bands of engrailed expressing cells

Compound: [CH3][Hg][Cl] [MeHg, methylmercury chloride]
- engrailed-GFP expression pattern and embryo development (engrailed-GFP embryos): stalls the embryo at Stage 11 and disrupts the regularity of engrailed banding pattern

Compound: C=C(C)C1CC=C(C)CC1 [Limonene, D-Limonene]
- miscibility with water (Miscibility with water): not miscible with water
